Data taken from US20220117938A1, “COMBINATON THERAPY WITH A DON PRODRUG AND AN IMMUNE CHECKPOINT INHIBITOR” (DRACEN PHARMACEUTICALS, INC., priority 2019, published 2022).

Tested on: CT26.WT tumors
Assay: Anti-tumor efficacy of Compound 1 by IV and SC routes in the CT26.WT model (Example 8)
Format: in vivo, mice
Protocol: Female BALB/c mice were inoculated subcutaneously in the right flank with CT26.WT cells for tumor development. Six days after tumor inoculation, mice with tumor sizes ranging from 32-77 mm^3 (average tumor size 56 mm^3) were selected and assigned into 6 groups using stratified randomization with 8 mice per group based upon their tumor volumes. The treatments were started from the day of randomization (defined as D0), Group 1 was treated with Vehicle control, q.d.×5 days on (Mon-Fri)×4 cycles s.c.; Group 2 was treated with Compound 1, 0.7 mpk×5 days on (Mon-Fri)×4 cycles s.c.; Group 3 was treated with Compound 1, 1.4 mpk×5 days on (Mon-Fri)×4 cycles s.c.; Group 4 was treated with Compound 1, 4.5 mpk×3-days on (Mon, Wed, Fri)×4 cycles, iv; Group 5 was treated with Compound 1, 7 mpk×2-days on (Mon,Thu)×4 cycles, iv; Group 6 was treated with Compound 1, 14 mpk×1-day on (Mon)×4 cycles, iv. The tumor sizes were measured three times per week during the treatment. The entire study was terminated on D44 after start of the treatment. All treatments were well-tolerated without any adverse effects or significant body weight loss.

[1] = Group 2, 0.7 mpk s.c. Mon-Fri x4 cycles
[2] = Group 2, 0.7 mpk s.c. Mon-Fri x4 cycles, day 16
[3] = Group 3, 1.4 mpk s.c. Mon-Fri x4 cycles
[4] = Group 3, 1.4 mpk s.c. Mon-Fri x4 cycles, day 16
[5] = Group 4, 4.5 mpk iv Mon,Wed,Fri x4 cycles
[6] = Group 4, 4.5 mpk iv Mon,Wed,Fri x4 cycles, day 16
[7] = Group 5, 7 mpk iv Mon,Thu x4 cycles
[8] = Group 5, 7 mpk iv Mon,Thu x4 cycles, day 16
[9] = Group 6, 14 mpk iv Mon x4 cycles
[10] = Group 6, 14 mpk iv Mon x4 cycles, day 16

CC(=O)N[C@@H](Cc1c[nH]c2ccccc12)C(=O)N[C@@H](CCC(=O)C=[N+]=[N-])C(=O)OC(C)C [Compound 1, Isopropyl (S)-2-((S)-2-acetamido-3-(1H-indol-3-yl)propanamido)-6-diazo-5-oxohexanoate]
ILS [1]: 86.1%
MST [1]: 33.5 days
RTV at day 16 [1]: 4.45 ± 0.74
Tumor volume (Group 2, 0.7 mpk s.c. Mon-Fri x4 cycles, day 0): 56 ± 4 mm^3
Tumor volume (Group 2, 0.7 mpk s.c. Mon-Fri x4 cycles, day 2): 62 ± 7 mm^3
Tumor volume (Group 2, 0.7 mpk s.c. Mon-Fri x4 cycles, day 4): 89 ± 10 mm^3
Tumor volume (Group 2, 0.7 mpk s.c. Mon-Fri x4 cycles, day 7): 124 ± 20 mm^3
Tumor volume (Group 2, 0.7 mpk s.c. Mon-Fri x4 cycles, day 9): 140 ± 22 mm^3
Tumor volume (Group 2, 0.7 mpk s.c. Mon-Fri x4 cycles, day 11): 143 ± 21 mm^3
Tumor volume (Group 2, 0.7 mpk s.c. Mon-Fri x4 cycles, day 14): 261 ± 45 mm^3
T/C [2]: 14.25%
TGI [2]: 87.81%
Tumor volume [2]: 259 ± 52 mm^3
Tumor volume (Group 2, 0.7 mpk s.c. Mon-Fri x4 cycles, day 18): 308 ± 63 mm^3
Tumor volume (Group 2, 0.7 mpk s.c. Mon-Fri x4 cycles, day 21): 407 ± 83 mm^3
Tumor volume (Group 2, 0.7 mpk s.c. Mon-Fri x4 cycles, day 23): 522 ± 102 mm^3
Tumor volume (Group 2, 0.7 mpk s.c. Mon-Fri x4 cycles, day 25): 648 ± 130 mm^3
Tumor volume (Group 2, 0.7 mpk s.c. Mon-Fri x4 cycles, day 28): 1030 ± 194 mm^3
Tumor volume (Group 2, 0.7 mpk s.c. Mon-Fri x4 cycles, day 30): 1585 ± 288 mm^3
ILS [3]: 86.1%
MST [3]: 33.5 days
RTV at day 16 [3]: 4.94 ± 0.82
Tumor volume (Group 3, 1.4 mpk s.c. Mon-Fri x4 cycles, day 0): 56 ± 5 mm^3
Tumor volume (Group 3, 1.4 mpk s.c. Mon-Fri x4 cycles, day 2): 55 ± 7 mm^3
Tumor volume (Group 3, 1.4 mpk s.c. Mon-Fri x4 cycles, day 4): 70 ± 8 mm^3
Tumor volume (Group 3, 1.4 mpk s.c. Mon-Fri x4 cycles, day 7): 107 ± 19 mm^3
Tumor volume (Group 3, 1.4 mpk s.c. Mon-Fri x4 cycles, day 9): 118 ± 21 mm^3
Tumor volume (Group 3, 1.4 mpk s.c. Mon-Fri x4 cycles, day 11): 150 ± 26 mm^3
Tumor volume (Group 3, 1.4 mpk s.c. Mon-Fri x4 cycles, day 14): 235 ± 35 mm^3
T/C [4]: 15.82%
TGI [4]: 86.45%
Tumor volume [4]: 282 ± 52 mm^3
Tumor volume (Group 3, 1.4 mpk s.c. Mon-Fri x4 cycles, day 18): 292 ± 49 mm^3
Tumor volume (Group 3, 1.4 mpk s.c. Mon-Fri x4 cycles, day 21): 406 ± 85 mm^3
Tumor volume (Group 3, 1.4 mpk s.c. Mon-Fri x4 cycles, day 23): 484 ± 103 mm^3
Tumor volume (Group 3, 1.4 mpk s.c. Mon-Fri x4 cycles, day 25): 539 ± 119 mm^3
Tumor volume (Group 3, 1.4 mpk s.c. Mon-Fri x4 cycles, day 28): 853 ± 163 mm^3
Tumor volume (Group 3, 1.4 mpk s.c. Mon-Fri x4 cycles, day 30): 1372 ± 230 mm^3
ILS [5]: 61.1%
MST [5]: 29 days
RTV at day 16 [5]: 8.92 ± 1.58
Tumor volume (Group 4, 4.5 mpk iv Mon,Wed,Fri x4 cycles, day 0): 56 ± 3 mm^3
Tumor volume (Group 4, 4.5 mpk iv Mon,Wed,Fri x4 cycles, day 2): 70 ± 6 mm^3
Tumor volume (Group 4, 4.5 mpk iv Mon,Wed,Fri x4 cycles, day 4): 92 ± 11 mm^3
Tumor volume (Group 4, 4.5 mpk iv Mon,Wed,Fri x4 cycles, day 7): 126 ± 16 mm^3
Tumor volume (Group 4, 4.5 mpk iv Mon,Wed,Fri x4 cycles, day 9): 168 ± 24 mm^3
Tumor volume (Group 4, 4.5 mpk iv Mon,Wed,Fri x4 cycles, day 11): 223 ± 40 mm^3
Tumor volume (Group 4, 4.5 mpk iv Mon,Wed,Fri x4 cycles, day 14): 427 ± 73 mm^3
T/C [6]: 28.57%
TGI [6]: 73.09%
Tumor volume [6]: 503 ± 94 mm^3
Tumor volume (Group 4, 4.5 mpk iv Mon,Wed,Fri x4 cycles, day 18): 648 ± 148 mm^3
Tumor volume (Group 4, 4.5 mpk iv Mon,Wed,Fri x4 cycles, day 21): 948 ± 230 mm^3
ILS [7]: 61.1%
MST [7]: 29 days
RTV at day 16 [7]: 7.58 ± 1.97
Tumor volume (Group 5, 7 mpk iv Mon,Thu x4 cycles, day 0): 56 ± 4 mm^3
Tumor volume (Group 5, 7 mpk iv Mon,Thu x4 cycles, day 2): 71 ± 9 mm^3
Tumor volume (Group 5, 7 mpk iv Mon,Thu x4 cycles, day 4): 78 ± 11 mm^3
Tumor volume (Group 5, 7 mpk iv Mon,Thu x4 cycles, day 7): 142 ± 26 mm^3
Tumor volume (Group 5, 7 mpk iv Mon,Thu x4 cycles, day 9): 166 ± 37 mm^3
Tumor volume (Group 5, 7 mpk iv Mon,Thu x4 cycles, day 11): 185 ± 45 mm^3
Tumor volume (Group 5, 7 mpk iv Mon,Thu x4 cycles, day 14): 395 ± 114 mm^3
T/C [8]: 24.28%
TGI [8]: 76.00%
Tumor volume [8]: 455 ± 131 mm^3
Tumor volume (Group 5, 7 mpk iv Mon,Thu x4 cycles, day 18): 518 ± 135 mm^3
Tumor volume (Group 5, 7 mpk iv Mon,Thu x4 cycles, day 21): 878 ± 272 mm^3
ILS [9]: 47.2%
MST [9]: 26.5 days
RTV at day 16 [9]: 7.02 ± 0.87
Tumor volume (Group 6, 14 mpk iv Mon x4 cycles, day 0): 56 ± 5 mm^3
Tumor volume (Group 6, 14 mpk iv Mon x4 cycles, day 2): 69 ± 7 mm^3
Tumor volume (Group 6, 14 mpk iv Mon x4 cycles, day 4): 78 ± 5 mm^3
Tumor volume (Group 6, 14 mpk iv Mon x4 cycles, day 7): 163 ± 24 mm^3
Tumor volume (Group 6, 14 mpk iv Mon x4 cycles, day 9): 160 ± 22 mm^3
Tumor volume (Group 6, 14 mpk iv Mon x4 cycles, day 11): 204 ± 29 mm^3
Tumor volume (Group 6, 14 mpk iv Mon x4 cycles, day 14): 425 ± 72 mm^3
T/C [10]: 22.49%
TGI [10]: 78.92%
Tumor volume [10]: 406 ± 74 mm^3
Tumor volume (Group 6, 14 mpk iv Mon x4 cycles, day 18): 578 ± 89 mm^3
Tumor volume (Group 6, 14 mpk iv Mon x4 cycles, day 21): 1035 ± 150 mm^3
Tumor volume (Group 6, 14 mpk iv Mon x4 cycles, day 23): 1216 ± 177 mm^3
Tumor volume (Group 6, 14 mpk iv Mon x4 cycles, day 25): 1684 ± 231 mm^3
